Source: patent US6251950A, “Aliphatic propargylamines as cellular rescue agents” (University of Saskatchewan, priority 1998, dated 2001)
Where a name gives a salt, the structure may show the parent alone. Read-outs that look alike come from different tables or passages of the source.

Tests used:
[1] = tested on: pyramidal neurons in the hippocampus (CA1 neurons); test: Hypoxia/ischaemia model, CA1 neuron survival; assay type: in vivo, rat; conditions: for response vs control in vivo at 0.1 µmol/kg: read-out: Percentage survival of CA1 neurones, of vehicle treated controls (Table 4); for mean survival of CA1 neurons, percentage of vehicle treated controls (Table 2): **P < 0.01
Text: This model produces selective, unilateral lesioning of the pyramidal neurons in the hippocampus which involves neuronal apoptosis.
Values are the mean survival of CA1 neurons expressed as a percentage of
vehicle treated controls (vehicle = 100%) ± sem (n = 6 - 10).

damaged neurons = conditions: cited from earlier work
[2] = tested on: cerebellar granule cells (CGC); test: in vitro; assay type: cell-based, Wistar rat; conditions: for Percent Apoptotic Nuclei (Ara C + R-2HMP + compound): antagonism, Ara C 100 μM + R-2HMP 100 nM + S-enantiomer 10 μM, #P < 0.05 compared to Ara C + R-2HMP; for Percent Apoptotic Nuclei (Ara C + R-2HMP + compound) / Percent Apoptotic Nuclei (Control + compound) / Percent Apoptotic Nuclei (Ara C + compound): mean ± sem of 4 cultures; for Percent Apoptotic Nuclei (Control + compound): no Ara C, control 4.2 ± 0.3; for Percent Apoptotic Nuclei (Control + compound) / Percent Apoptotic Nuclei (Ara C + compound): R-2HMP 100 nM, S-2HMP 10 μM, S-2HPA 10 μM; for Percent Apoptotic Nuclei (Ara C + compound): with Ara C 100 μM, *P < 0.05 compared to Ara C alone; for blocking of Ara C induced apoptosis: 10^-7 M (FIG. 1c)
Text: Cultures of cerebellar granule cells (CGC) can be induced into apoptosis by the addition of a high concentration of cytosine arabinoside (Ara C) (Dessi et al., 1995) and it has been shown that this is a p53 dependent apoptosis (Enokido et al, 1996). We have measured the antiapoptotic effect of N-(2-heptyl)propargylamine (2HPA) using this system and compared the results to those obtained with previously known aliphatic methyl propargylamines and deprenyl.
Cultures of CGC were obtained from 6-8 day old Wistar rat pups. Cultures were grown on glass in 35 mm petri dishes for 3 days and then used for experiments. 20 μl aliquots of drug solutions (Ara C, anti-apoptotic drugs, drug vehicles) were added to the medium of the cultures. 24 Hours later the cultures were fixed with FAM, and stained with bis-benzamide. Normal and apoptotic nuclei were counted to a total of 90-120 cells per culture. […] Concentrations in excess of 150 μM caused detachment of the cultures.
Compounds were added at the following concentrations: Ara C, 100 μM,

[3] = target: T1, rat liver mitochondrial monoamine oxidase B (Rattus norvegicus, UniProt P19643); test: biochemical; assay type: biochemical; conditions: for Comparison to most effective MAO-B inhibitor in group / MAO-B inhibitory activity: in vitro; for Comparison to most effective MAO-B inhibitor in group: relative to most effective inhibitor in group; for IC50: substrate PE (β-phenylethylamine) 1.9 × 10^-5 M, average of at least 2 independent triplicate experiments
T1 sequence (P19643 1-520): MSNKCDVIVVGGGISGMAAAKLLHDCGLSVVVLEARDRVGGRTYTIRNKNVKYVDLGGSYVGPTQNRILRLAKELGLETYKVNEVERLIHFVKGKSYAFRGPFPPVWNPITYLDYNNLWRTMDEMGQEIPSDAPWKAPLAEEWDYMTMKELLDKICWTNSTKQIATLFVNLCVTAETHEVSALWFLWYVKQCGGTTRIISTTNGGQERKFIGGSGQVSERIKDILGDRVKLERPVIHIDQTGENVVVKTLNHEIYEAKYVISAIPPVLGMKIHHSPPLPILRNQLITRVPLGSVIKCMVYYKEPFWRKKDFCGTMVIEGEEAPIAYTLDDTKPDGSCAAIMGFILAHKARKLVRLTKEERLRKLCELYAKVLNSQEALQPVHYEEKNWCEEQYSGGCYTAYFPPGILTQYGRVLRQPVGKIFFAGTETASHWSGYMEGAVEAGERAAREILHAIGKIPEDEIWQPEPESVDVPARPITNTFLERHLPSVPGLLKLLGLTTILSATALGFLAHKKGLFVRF
Experimental: Enzyme activity was assessed using a radiometric method as previously described (Yu et al, 1992).

mouse brain MAO-B = target: T2, mouse brain MAO-B (Mus musculus, UniProt Q8BW75); test: Inhibition in vivo of brain MAO-B activity after intraperitoneal administration; conditions: i.p.
T2 construct: Striata were dissected from the brain two hours after i.p. administration of the drugs; from tissue; host or cells: mouse brain striata, dissected two hours after i.p. dosing
T2 sequence (Q8BW75 1-520): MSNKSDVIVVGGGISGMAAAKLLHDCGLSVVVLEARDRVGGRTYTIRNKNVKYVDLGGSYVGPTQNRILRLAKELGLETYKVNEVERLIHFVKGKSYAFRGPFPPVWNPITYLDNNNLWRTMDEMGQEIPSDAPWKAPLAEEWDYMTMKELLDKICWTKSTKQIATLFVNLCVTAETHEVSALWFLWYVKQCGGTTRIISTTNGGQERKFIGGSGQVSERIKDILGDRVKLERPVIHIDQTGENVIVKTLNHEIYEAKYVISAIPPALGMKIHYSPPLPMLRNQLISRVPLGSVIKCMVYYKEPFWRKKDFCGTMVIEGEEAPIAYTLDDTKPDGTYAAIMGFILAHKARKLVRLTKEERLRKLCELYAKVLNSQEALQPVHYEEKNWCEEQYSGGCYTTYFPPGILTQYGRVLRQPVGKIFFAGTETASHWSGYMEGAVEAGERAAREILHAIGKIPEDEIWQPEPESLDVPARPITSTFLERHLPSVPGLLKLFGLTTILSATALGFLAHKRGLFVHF
Experimental: Results are the average of two independent triplicate experiments for each i.p. dose. The doses were 0.5, 1, 2, 5, 10, 20 mg/Kg. Striata were dissected from the brain two hours after i.p. administration of the drugs. MAO-B activities were then determined immediately (Yu et al 1992). The values were estimated from dose-response curves.

[4] = Rattus norvegicus, Neuron, sc, 0.1 μmol/kg, s.c., vehicle = 100%, ± sem (n = 6-10), *P < 0.05, **P < 0.01
[5] = 0.1 μmol/kg, s.c., vehicle = 100%, ± sem (n = 6-10)

C#CCN(C)CC [EMP, N-ethyl-N-methylpropargylamine]
response vs control in vivo at 0.1 µmol/kg [1, 4]: 82 ± 19%

CCCCC[C@@H](C)NC [Example R-2HMA, (R)-N-(2-heptyl)-methylamine]
mean survival of CA1 neurons, percentage of vehicle treated controls (Table 2) [1, 5]: 85 ± 26% | activity in the hypoxia/ischaemia model ([1]; s.c.): neither increase nor decrease the CA1 neuronal death

C#CCNC(C)Cc1ccccc1 (centres unmarked) [Desmethyldeprenyl]
anti-apoptotic / neurorescue activity (damaged neurons): active as an anti-apoptotic drug

C#CCNC(C)C.Cl [Example 2PrPA, N-2-Propylpropargylamine hydrochloride]
response vs control in vivo at 0.1 µmol/kg [1, 4]: 175 ± 20% | activity in the hypoxia/ischaemia model ([1]; s.c.): slightly lower than those of the optimum branched chain compounds

C#CCN(C)C [DMP, N,N-dimethylpropargylamine]
response vs control in vivo at 0.1 µmol/kg ([1]; Rattus norvegicus, Neuron, sc): 117 ± 28%

C#CCN[C@@H](C)CCCCC [Example S-2HPA, (S)-N-(2-heptyl)-propargylamine]
Percent Apoptotic Nuclei (Ara C + R-2HMP + compound) [2]: 13.8 ± 1.2% | antagonism of the anti-apoptotic action of the R-enantiomers ([2]; in words): antagonists of the anti-apoptotic action of the R-enantiomers | anti-apoptotic effect ([2]; in words): does not have an anti-apoptotic effect | Percent Apoptotic Nuclei (Control + compound) [2]: 4.7 ± 0.7% | Percent Apoptotic Nuclei (Ara C + compound) [2]: 14.2 ± 0.9% | mean survival of CA1 neurons, percentage of vehicle treated controls (Table 2) [1, 5]: 131 ± 19% | response vs control in vivo at 0.1 µmol/kg [1, 4]: 131 ± 19% | Comparison to most effective MAO-B inhibitor in group [3]: 0.1% | IC50 [3]: 30 µM

CCCCC[C@@H](C)N [Example R-2HA, (R)-(2-heptyl)amine]
mean survival of CA1 neurons, percentage of vehicle treated controls (Table 2) [1, 5]: 90 ± 30% | activity in the hypoxia/ischaemia model ([1]; s.c.): neither increase nor decrease the CA1 neuronal death

C#CCN(C)[C@H](C)CC [Example R-2BuMP, (R)-N-(2-butyl)-N-methylpropargylamine]
response vs control in vivo at 0.1 µmol/kg ([1]; Rattus norvegicus, Neuron, sc): 297 ± 52%

C#CCNC(C)CCCCC (centres unmarked) [Example 2HPA, N-(2-heptyl)-propargylamine]
MAO-B inhibitory activity [3]: substantially reduced in comparison to those of the N-methyl compounds

C#CCNCC [EPA, N-ethylpropargylamine]
response vs control in vivo at 0.1 µmol/kg [1, 4]: 164 ± 18%

C#CCNC(C)CCCC (centres unmarked) [Example 2HxPA, N-(2-hexyl)-propargylamines]
MAO-B inhibitory activity [3]: substantially reduced in comparison to those of the N-methyl compounds

C#CCNCCC.Cl [Example 1PrPA, N-1-Propylpropargylamine hydrochloride]
response vs control in vivo at 0.1 µmol/kg [1, 4]: 174 ± 29% | activity in the hypoxia/ischaemia model ([1]; s.c.): active

C#CCN(C)[C@H](C)CCCC [Example R-2HxMP, N-(2-hexyl)-N-methyl-propargylamine]
Comparison to most effective MAO-B inhibitor in group [3]: 100% | IC50 [3]: 0.03 µM

C#CCNC [MPA, N-methylpropargylamine]
response vs control in vivo at 0.1 µmol/kg ([1]; Rattus norvegicus, Neuron, sc): 78 ± 31%

C#CCN(C)[C@@H](C)CCCCC [Example S-2HMP, (S)-N-(2-heptyl)-N-methyl-propargylamine]
blocking of Ara C induced apoptosis [2]: did not | Percent Apoptotic Nuclei (Ara C + R-2HMP + compound) [2]: 15.1 ± 0.9% | antagonism of the anti-apoptotic action of the R-enantiomers ([2]; in words): antagonists of the anti-apoptotic action of the R-enantiomers | Percent Apoptotic Nuclei (Control + compound) [2]: 5.0 ± 0.6% | Percent Apoptotic Nuclei (Ara C + compound) [2]: 13.7 ± 1.1% | mean survival of CA1 neurons, percentage of vehicle treated controls (Table 2) [1, 5]: 112 ± 23% | response vs control in vivo at 0.1 µmol/kg [1, 4]: 112 ± 23% | Comparison to most effective MAO-B inhibitor in group [3]: 0.8% | IC50 [3]: 4 µM

C#CCN[C@@H](C)CC [Example S-2BuPA, (S)-N-(2-butyl)-propargylamine]
Comparison to most effective MAO-B inhibitor in group [3]: 0.2% | IC50 [3]: 500 µM

C#CCNCCCCCC [Example 1HxPA, N-1-Hexylpropargylamine hydrochloride]
response vs control in vivo at 0.1 µmol/kg [1, 4]: 179 ± 23%

C#CCN(C)[C@H](C)CCCCC [Example R-2HMP, (R)-N-(2-heptyl)-N-methyl-propargylamine]
Comparison to most effective inhibitor (mouse brain MAO-B; in vivo, relative to R-2HMP): 100% | potency relative to R-deprenyl (mouse brain MAO-B; mouse brain MAO-B, fold more potent than R-deprenyl): 2.5 fold | ED50 (mouse brain MAO-B; mouse, ip, 2 h, PE 1.9 × 10^-5 M, striata two hours after administration, estimated from dose-response curves, read-out: IC50 (mg/Kg) (MAO-B, in vivo)): 0.2 mg/kg | blocking of Ara C induced apoptosis [2]: completely blocked | EC50 ([2]; Rattus norvegicus, inhibition of Ara C induced apoptosis (FIG. 1a, 1b)): 0.001 to 0.1 µM | Percent Apoptotic Nuclei (Control + compound) [2]: 4.8 ± 0.7% | Percent Apoptotic Nuclei (Ara C + compound) [2]: 6.3 ± 0.8% | mean survival of CA1 neurons, percentage of vehicle treated controls (Table 2) [1, 5]: 239 ± 35% | response vs control in vivo at 0.1 µmol/kg [1, 4]: 239 ± 35% | ED50 ([1]; Rattus norvegicus, Neuron, sc, subcutaneous administration): 0.001 to 0.01 µmol/kg | activity in the hypoxia/ischaemia model ([1]; s.c.): shows significant activity | Comparison to most effective MAO-B inhibitor in group [3]: 100% | IC50 [3]: 0.03 µM

C#CCN(C)CCC [Example 1PrMP, N-(1-propyl)-N-methylpropargylamine]
response vs control in vivo at 0.1 µmol/kg [1, 4]: 127 ± 31% | activity in the hypoxia/ischaemia model ([1]; s.c.): inactive

CCCC(C(=O)OCCN(CC)CC)(c1ccccc1)c1ccccc1 [proadifen]
effect on P450-dependent neurorescue properties of deprenyl (damaged neurons; pretreatment with P450 inhibitor): eliminates the neurorescue properties of deprenyl

C#CCN(C)CCCCCC [Example 1HxMP, N-(1-hexyl)-N-methylpropargylamine]
response vs control in vivo at 0.1 µmol/kg [1, 4]: 215 ± 24%

C#CCN(C)[C@@H](C)CCCC [Example S-2HxMP, N-(2-hexyl)-N-methyl-propargylamine]
Comparison to most effective MAO-B inhibitor in group [3]: 4.3% | IC50 [3]: 0.7 µM

C#CCN(C)[C@@H](C)CC [Example S-2BuMP, (S)-N-(2-butyl)-N-methylpropargylamine]
response vs control in vivo at 0.1 µmol/kg ([1]; Rattus norvegicus, Neuron, sc): 139 ± 38%

C#CCN[C@H](C)CCCC.Cl [Example R-2HxPA, (R)-N-2-Hexylpropargylamine hydrochloride]
Comparison to most effective MAO-B inhibitor in group [3]: 0.8% | IC50 [3]: 4 µM

C#CCN(C)C(C)C [Example 2PrMP, N-(2-propyl)-N-methylpropargylamine]
response vs control in vivo at 0.1 µmol/kg [1, 4]: 255 ± 43% | activity in the hypoxia/ischaemia model ([1]; s.c.): slightly lower than those of the optimum branched chain compounds

C#CCNC(C)CC (centres unmarked) [Example 2BuPA, N-(2-butyl)-propargylamine]
MAO-B inhibitory activity [3]: substantially reduced in comparison to those of the N-methyl compounds

C#CCN[C@H](C)CC.Cl [Example R-2BuPA, (R)-N-2-Butylpropargylamine hydrochloride]
response vs control in vivo at 0.1 µmol/kg [1, 4]: 263 ± 37% | Comparison to most effective MAO-B inhibitor in group [3]: 1.4% | IC50 [3]: 70 µM

C#CCN(C)[C@@H](C)Cc1ccccc1 [S-deprenyl]
blocking of Ara C induced apoptosis [2]: did not
